The source of these data is US7648961B2, “Use of somatostatin or one of its analogues for preparing a medicament intended to regulate the ovarian follicular reserve in non-menopausal women” (Preglem S.A., priority 2003, dated 2010).

Experiment [1] has as its system primordial follicles of ovarian cortex. Put plainly: Culture of ewe ovarian cortex fragments for 10 days: start of growth of primordial follicles. It counts as cell-based. Conditions: for start of growth of the primordial follicles: ewe ovarian cortex, 10 days of culture, versus control fragments. The method, then: Ovaries of adult ewes are collected immediately after slaughter. The ovaries are placed in an organ transport medium without serum (X-vivo, Bio Whittaker, Walkersville, Md., USA) at 10° C. and transported to the laboratory. Approximately 1 h after removal, the cortex is isolated from the medulla then fractionated into slices of 2 mm thickness (1 cm^2, average weight of 212 mg) after rinsing in new X-vivo. The cortex fragments are cultured in an oven under 5% oxygen for 10 days in well plates in the presence of DMEM. The medium is changed every 2 days.
The procedure used is the same as for Example 1, except that the somatostatin is replaced with one of its agonist analogues, namely the synthetic peptide of formula c[Tic-Tyr-DTrp-Lys-Abu-Phe] (hereafter AG1 peptide).
The procedure used is the same as for Example 1, except that the somatostatin is replaced by one of its antagonist analogues, namely the synthetic peptide of formula Cpa-c(DCys-3-Pal-DTrp-NMeLys-Thr-Cys)-2-Nal-NH2 (hereafter ANT1 peptide).
FIG. 1 represents the proportions of dormant follicles during a period of 10 days of culture of an ovarian cortex of a ewe in the presence or absence (control) of somatostatin (SST14). These proportions are measured for each sample tested on the day of the start of the experiment (D0), on the 4th day (D4), on the 7th day (D7) and on the 10th day (D10).
FIG. 2 represents the proportions of primary follicles during a period of 10 days of culture of an ovarian cortex of a ewe in the presence or absence (control) of somatostatin (SST14). These proportions are measured for each sample tested on the day of the start of the experiment (D0), on the 4th day (D4), on the 7th day (D7) and on the 10th day (D10).
FIG. 3 represents the proportions of primordial, intermediate, primary and secondary follicles during a period of 10 days of culture of an ovarian cortex of a ewe in the absence of agonist or somatostatin antagonist analogue. These proportions are measured for each sample tested on the day of the start of the experiment (D0), on the 4th day (D4), on the 7th day (D7) and on the 10th day (D10).
FIG. 4 represents the proportions of primordial, intermediate, primary and secondary follicles during a period of 10 days of culture of an ovarian cortex of a ewe in the presence or absence of a somatostatin agonist analogue, the synthetic peptide of formula c[Tic-Tyr-DTrp-Lys-Abu-Phe] (AG1 peptide). These proportions are measured for each sample tested on the day of the start of the experiment (D0), on the 4th day (D4), on the 7th day (D7) and on the 10th day (D10).
FIG. 5 represents the proportions of primordial, intermediate, primary and secondary follicles during a period of 10 days of culture of an ovarian cortex of a ewe in the presence or absence of a somatostatin antagonist analogue, the synthetic peptide of formula Cpa-c(DCys-3-Pal-DTrp-NMeLys-Thr-Cys)-2-Nal-NH2 (ANT1 peptide). These proportions are measured for each sample tested on the day of the start of the experiment (D0), on the 4th day (D4), on the 7th day (D7) and on the 10th day (D10).

Experiment [2] concerns ovarian follicles. Put plainly: Envisaged typical clinical situations of use in patients. It counts as in vivo, human. Conditions: patient with polycystic ovary syndrome, 120 mg/month, 4th month of treatment, envisaged situation. The text has this: The following typical situations for a use according to the invention could however be envisaged: • A patient of approximately 20 to 25 years of age (for example) has a partial Turner syndrome through X chromosome microdeletion. Their ovarian function is apparently normal with regular ovulatory cycles. Their FSH serum level is slightly higher during the luteal-follicular transition period (for example FSH=approximately 9.2 IU/litre). […] Considering the high risk that they will have early menopause, the patient is treated with lanreotide acetate at a dose of 120 mg/months (Somatuline® Autogel® 120 mg, Beaufour Ipsen Pharma, France). The treatment is discontinued after several years when the patient wishes to conceive. • A patient of approximately 35 to 40 years of age has had primary sterility for several years. Assessment of the couple produced a diagnosis of sterility of tubal origin, very probably resulting from a history of peritonitis. The menstrual cycles are ovulatory and the FSH serum level is slightly higher during the luteal-follicular transition period (for example FSH=approximately 11.4 IU/L). […] A diagnosis of reduction of the ovarian reserve is made. […] During this treatment, the number of antral follicles present in each ovary is assessed by ultrasound at the start of each menstrual cycle. […]

Setting [3] is: AG1 peptide at 10^-9 M, D0-D10, FIG. 4.

Where a SMILES comes first, the peptide text is derived from it. [ ]: non-standard residue; d: D form. Tic = O=C(O)[C@@H]1Cc2ccccc2CN1; Abu = CC[C@H](N)C(=O)O

As for `CC[C@@H]1NC(=O)[C@H](CCCCN)NC(=O)[C@@H](Cc2c[nH]c3ccccc23)NC(=O)[C@H](Cc2ccc(O)cc2)NC(=O)[C@@H]2Cc3ccccc3CN2C(=O)[C@H](Cc2ccccc2)NC1=O` [AG1 peptide, c[Tic-Tyr-DTrp-Lys-Abu-Phe]] (cyclo([Tic]Y[dW]K[Abu]F)), in experiment [1] (setting [3]), the “number of primary follicles” value is recorded as “absence of increase in the number of primary follicles” and the “number of primordial follicles over time” value is given as “maintenance over time of the number of primordial follicles”. Also, the “start of growth of the primordial follicles” value in experiment [1] (AG1 peptide at 10^-9 M) is “very significantly inhibits the start of growth of the primordial follicles”.
Turning to `C[C@H](N)C(=O)NCC(=O)N[C@H]1CSSC[C@@H](C(=O)O)NC(=O)[C@H](CO)NC(=O)[C@H]([C@@H](C)O)NC(=O)[C@H](Cc2ccccc2)NC(=O)[C@H]([C@@H](C)O)NC(=O)[C@H](CCCCN)NC(=O)[C@H](Cc2c[nH]c3ccccc23)NC(=O)[C@H](Cc2ccccc2)NC(=O)[C@H](Cc2ccccc2)NC(=O)[C@H](CC(N)=O)NC(=O)[C@H](CCCCN)NC1=O` [SST14], in experiment [1] (SST14 at 10^-9 M to 10^-6 M, D0-D10, FIG. 1), the “number of primordial follicles over time” value was “maintenance over time of the number of primordial follicles”. The “number of primary follicles” value in experiment [1] (SST14 at 10^-9 M to 10^-6 M, D0-D10, FIG. 2) was “absence of increase in the number of primary follicles”. The “start of growth of the primordial follicles” value in experiment [1] (SST14 at 10^-9 M to 10^-6 M) is reported as “very significantly inhibits the start of growth of the primordial follicles”.
With `CC(C)[C@@H]1NC(=O)[C@H](CCCCN)NC(=O)[C@@H](Cc2c[nH]c3ccccc23)NC(=O)[C@H](Cc2ccc(O)cc2)NC(=O)[C@@H](NC(=O)[C@H](N)Cc2ccc3ccccc3c2)CSSC[C@@H](C(=O)N[C@H](C(N)=O)[C@@H](C)O)NC1=O` [lanreotide acetate], the “ovarian volume and number of antral follicles (ultrasound)” value in experiment [2] is “reduction in ovarian volume and in the number of antral follicles”.
